Results: patent US6355632B1, “Naphthyl compounds, intermediates, compositions, and methods” (Eli Lilly and Company, priority 1995, dated 2002)
Where a name gives a salt, the structure may show the parent alone.

melting point: 184 to 188 °C
SMILES: COc1ccc(-c2ccc3cc(OC)ccc3c2Oc2ccc(OCCN3CCCCC3)cc2)cc1 (as salt: hydrochloride) [Example 4, 1-[4-[2-(1-piperdinyl)ethoxy]phenoxy]-2-(4-methoxyphenyl)-6-methoxynaphthalene hydrochloride]
